# Assay results reported in paper PMC9598656, “In Vitro Activity of Robenidine Analogues NCL259 and NCL265 against Gram-Negative Pathogens” (Antibiotics, 2022).
# Read-outs that look alike come from different tables or passages of the source.
# Assays:
# [1] = system: HEL 299 (non-cancerous human lung fibroblast cell line); assay: In vitro cytotoxicity, WST-1; format: cell-based; conditions: HEL 299, 24 h
# Description: (§1) Potential toxicity of NCL259 and NCL265 to mammalian cells relative to the parent compound (NCL812) was examined using Caco-2 (human colorectal adenocarcinoma cell line), HEL 299 (non-cancerous human lung fibroblast cell line), Hep G2 (human hepatocellular carcinoma cell line), MCF-7 (human mammary gland adenocarcinoma cell line), MDBK (normal Madin–Darby bovine kidney cell line) and Vero (normal adult African green monkey cell line), essentially as described previously. Toxicity to the cell lines was performed using serial two-fold dilutions of each compound from 128 to 1 μg/mL in duplicates in flat bottom 96 well tissue culture trays (Sarstedt 83.3924) containing approximately 2 × 10^4 cells per well in antibiotic-free Dulbecco’s Modified Eagle’s Medium (DMEM; Gibco Cat No: 12430; Thermo Fisher Scientific, Scoresby, VIC, Australia) consisting of 10% (v/v) fetal bovine serum at 37 °C, 5% CO2 for 24 h. Duplicate wells containing ampicillin at 128 to 1 μg/mL were used as controls. Thereafter, 10% (v/v) of the WST-1 cell proliferation assay reagent (Cat No: 05015944001; Roche Life Science, North Ryde, NSW, Australia) was added to each well, the trays were further incubated at 37 °C, 5% CO2 for 1 h and absorbance read at A450nm on a Multiskan Ascent 354 Spectrophotometer (Labsystems, Lilydale, VIC, Australia). The inhibitory concentration of each compound was determined as the half maximal inhibitory concentration (IC50) at A450nm.
# [2] = system: MCF-7 (human mammary gland adenocarcinoma cell line); assay: In vitro cytotoxicity, WST-1; format: cell-based; conditions: MCF7, 24 h
# Description: as §1
# [3] = system: Vero (normal adult African green monkey cell line); assay: In vitro cytotoxicity, WST-1; format: cell-based; conditions: Chlorocebus sabaeus, 24 h
# Description: as §1
# [4] = system: MDBK (normal Madin–Darby bovine kidney cell line); assay: In vitro cytotoxicity, WST-1; format: cell-based; conditions: Bos taurus, 24 h
# Description: as §1
# [5] = system: Hep G2 (human hepatocellular carcinoma cell line); assay: In vitro cytotoxicity, WST-1; format: cell-based; conditions: HepG2, 24 h
# Description: as §1
# [6] = system: K. pneumoniae ATCC 33495; assay: Checkerboard assay with PMB; format: cell-based, Klebsiella pneumoniae; conditions: for MIC, Combination: NCL259 or NCL265 with PMB; for Combination Effect / FICI: with PMB
# Protocol: (§2) MICs of NCL259 or NCL265 in the presence of the efflux pump inhibitor, PAβN were determined using a checkerboard assay. […] Briefly, a two-fold serial dilution of each antimicrobial solution was prepared in its appropriate solvent (e.g., DMSO for robenidine analogues and Milli-Q water for PAβN), and 1 μL of each dilution was added from wells 12 to 3 (12.8–0.25 μg/mL for robenidine analogues, and 32–2 μg/mL for PAβN). Thereafter, 89 μL of LB broth was added to each well followed by the addition of 10 μL of bacterial suspension (1–5 × 10^6 CFU/mL) to each well. In this manner, the final concentration of DMSO in each well was 1%. The plate was subsequently incubated at 37 °C for 24 h. The resazurin assay was used for assessment of drug susceptibility of NCL259 and NCL265 (Supplementary Table S1–S6). The same method was also used to test the MICs of NCL259 or NCL265 in the presence of PMB against a range of Gram-negative reference strains (E. coli ATCC 25922, E. coli ATCC 10763, P. aeruginosa PAO1, P. aeruginosa ATCC 27853, A. baumannii ATCC 12457, A. baumannii ATCC 19606, K. pneumoniae ATCC 4352 and K. pneumoniae ATCC 33495). Stock solutions were prepared prior to use (25.6–0.25 mg/mL for robenidine analogues; 12.8–0.25 mg/mL for PMB). The interaction of two antibiotics was calculated as the fractional inhibitory concentration index (FICI) using the following formula:(1) FICI=MICA in combination/MICA alone+MICB in combination/MICB alone where A is NCL259 or NCL265 and B is PAβN or PMB. According to FICI calculations, the interaction between two compounds were interpreted as follows: synergistic (FICI ≤ 0.5); additive or partially synergistic (0.5 < FICI ≤ 1); indifferent (1 < FICI ≤ 4); and antagonistic (FICI > 4), as described previously. The dose reduction index (DRI) was used to describe the difference between the effective doses of NCL259 or NCL265 in combination with PMB or PAβN in comparison to their individual doses, using the following formula:(2) DRI=MICA alone/MICA in combination
# (§3) Evaluation of DRI is important clinically because it can allow the dose of a potentially toxic drug to be lowered in combination with another compound without reducing the drug’s efficacy. A DRI higher than 1 is viewed as beneficial.
# [7] = system: K. pneumoniae ATCC 4352; assay: Checkerboard assay with PMB; format: cell-based, Klebsiella pneumoniae; conditions: for MIC, Combination: NCL259 or NCL265 with PMB; for Combination Effect / FICI: with PMB
# Protocol: as §2, §3
# [8] = system: P. aeruginosa ATCC 27853; assay: Checkerboard assay with PMB; format: cell-based, Pseudomonas aeruginosa; conditions: for MIC, Combination: NCL259 or NCL265 with PMB; for Combination Effect / FICI: with PMB
# Protocol: as §2, §3
# [9] = system: P. aeruginosa PAO1; assay: Checkerboard assay with PMB; format: cell-based, Pseudomonas aeruginosa; conditions: for MIC, Combination: NCL259 or NCL265 with PMB; for Combination Effect / FICI: with PMB
# Protocol: as §2, §3
# [10] = system: K. pneumoniae 13GNB–429, K. pneumoniae 13GNB–550 and K. oxytoca 13GNB–582; assay: MIC, three resistant Klebsiella isolates; format: cell-based; conditions: three resistant Klebsiella spp. isolates
# Protocol: MICs for NCL259 and NCL265 (serial two-fold dilutions commencing at 256 µg/mL) were determined (in duplicate) in round bottom 96–well microtitre trays (Sarstedt 82.1582.001), using the broth micro-dilution method recommended by the Clinical and Laboratory Standards Institute (CLSI). We have shown previously that robenidine can chelate calcium ions from cation-adjusted Mueller-Hinton broth, which causes the loss of activity of robenidine. Therefore, LB broth was used in this study. Additionally, considering the low solubility of robenidine and its analogues in aqueous solutions, two-fold serial dilutions of stock solutions of these compounds were prepared in 100% DMSO [21]. The MIC for ampicillin against each isolate was determined for each test to serve as an internal quality control. The MICs of isolates were determined by visual reading and using an EnSpire Multimode Plate Reader 2300 at A600nm.
# [11] = first of two independent experiments
# [12] = second of two independent experiments
Compound,"IC50 [1, 11]","IC50 [1, 12]","IC50 [2, 11]","IC50 [2, 12]","IC50 [3, 11]","IC50 [3, 12]","IC50 [4, 11]","IC50 [4, 12]","IC50 [5, 11]","IC50 [5, 12]","MIC, Combination [6]",Combination Effect [6],FICI [6],"MIC, Combination [7]",Combination Effect [7],FICI [7],"MIC, Combination [8]",Combination Effect [8],FICI [8],"MIC, Combination [9]",also measured
"[H]/N=C(\N)NN=C(CC1CCCCC1)c1ccc(Cl)cc1 [NCL259, (E)-2-(1-(4-chlorophenyl)-2-cyclohexylethylidene)hydrazine-1-carboximidamide]",< 2 µg/mL,< 2 µg/mL,3 µg/mL,6 µg/mL,6 µg/mL,3 µg/mL,2 µg/mL,2 µg/mL,< 1 µg/mL,< 1 µg/mL,1 µg/mL,"Additivity (additive or partially synergistic, 0.5 < FICI ≤ 1)",0.516,1 µg/mL,"Synergism (synergistic, FICI ≤ 0.5)",0.375,2 µg/mL,"Additivity (additive or partially synergistic, 0.5 < FICI ≤ 1)",0.531,1 µg/mL,"Dose Reduction Index (DRI) PMB:NCL259 ([6]; PMB + NCL259): 64; Dose Reduction Index (DRI) PMB:NCL259 ([7]; PMB + NCL259): 8; Dose Reduction Index (DRI) PMB:NCL259 ([8]; PMB + NCL259): 32; Dose Reduction Index (DRI) PMB:NCL259 ([9]; PMB + NCL259): 64; Combination Effect [9]: Additivity (additive or partially synergistic, 0.5 < FICI ≤ 1); FICI [9]: 0.516; MIC [10]: > 256 µg/mL; MIC ([10]; read-out: MIC): > 256 µg/mL"
"[H]/N=C(\N)NN=C(CCCCCC)c1ccc(Cl)cc1 [NCL265, (E)-2-(1-(4-chlorophenyl)heptylidene)hydrazine-1-carboximidamide]",< 2 µg/mL,< 2 µg/mL,< 1 µg/mL,6 µg/mL,6 µg/mL,3 µg/mL,3 µg/mL,2 µg/mL,< 1 µg/mL,< 1 µg/mL,2 µg/mL,"Synergism (synergistic, FICI ≤ 0.5)",0.281,0.5 µg/mL,"Synergism (synergistic, FICI ≤ 0.5)",0.5,0.5 µg/mL,"Additivity (additive or partially synergistic, 0.5 < FICI ≤ 1)",0.516,0.25 µg/mL,"Dose Reduction Index (DRI) PMB:NCL265 ([6]; PMB + NCL265): 32; Dose Reduction Index (DRI) PMB:NCL265 ([7]; PMB + NCL265): 4:4; Dose Reduction Index (DRI) PMB:NCL265 ([8]; PMB + NCL265): 64; Dose Reduction Index (DRI) PMB:NCL265 ([9]; PMB + NCL265): 256; Combination Effect [9]: Additivity (additive or partially synergistic, 0.5 < FICI ≤ 1); FICI [9]: 0.504; MIC [10]: > 256 µg/mL; MIC ([10]; read-out: MIC): > 256 µg/mL"
